# Measurements: US20150094474A1, “AGRICULTURAL CHEMICALS” (Redx Pharma Ltd., priority 2012, published 2015)
# System: peas
# Experiment: Herbicidal bioassay, peas (% necrosis)
# Format: in vivo
# How it was run: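 Scoring of % necrosis followed EPPO guideline PP1/135 at specified growth intervals, five replicates per species and treatment. Plants at the 2-4 true leaf stage received Potter-tower sprays of DMSO-diluted compounds across six levels from 0.0001% to 0.05%, with water and DMSO controls.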
structure (smiles),measurement,setting,value
CCOC(=O)C(C)Oc1ccc(Oc2ccc(C(F)(F)F)cn2)cc1 (stereo not drawn) [Fluazifop Ethyl ester (62)],Sum of % necrosis in Peas,"Dose 0.000001, Day 0",C (less than 50% necrosis)
same,Sum of % necrosis in Peas,"Dose 0.000001, Day 1",C (less than 50% necrosis)
same,Sum of % necrosis in Peas,"Dose 0.000001, Day 3",C (less than 50% necrosis)
same,Sum of % necrosis in Peas,"Dose 0.000001, Day 7",C (less than 50% necrosis)
same,Sum of % necrosis in Peas,"Dose 0.000001, Day 10",C (less than 50% necrosis)
same,Sum of % necrosis in Peas,"Dose 0.000001, Day 14",C (less than 50% necrosis)
same,Sum of % necrosis in Peas,"Dose 0.000001, Day 21",C (less than 50% necrosis)
same,Sum of % necrosis in Peas,"Dose 0.000005, Day 0",C (less than 50% necrosis)
same,Sum of % necrosis in Peas,"Dose 0.000005, Day 1",C (less than 50% necrosis)
same,Sum of % necrosis in Peas,"Dose 0.000005, Day 3",C (less than 50% necrosis)
same,Sum of % necrosis in Peas,"Dose 0.000005, Day 7",C (less than 50% necrosis)
same,Sum of % necrosis in Peas,"Dose 0.000005, Day 10",C (less than 50% necrosis)
same,Sum of % necrosis in Peas,"Dose 0.000005, Day 14",B (50%-80% necrosis)
same,Sum of % necrosis in Peas,"Dose 0.000005, Day 21",B (50%-80% necrosis)
same,Sum of % necrosis in Peas,"Dose 0.00001, Day 0",C (less than 50% necrosis)
same,Sum of % necrosis in Peas,"Dose 0.00001, Day 1",C (less than 50% necrosis)
same,Sum of % necrosis in Peas,"Dose 0.00001, Day 3",C (less than 50% necrosis)
same,Sum of % necrosis in Peas,"Dose 0.00001, Day 7",C (less than 50% necrosis)
same,Sum of % necrosis in Peas,"Dose 0.00001, Day 10",B (50%-80% necrosis)
same,Sum of % necrosis in Peas,"Dose 0.00001, Day 14",A (over 80% necrosis)
same,Sum of % necrosis in Peas,"Dose 0.00001, Day 21",A (over 80% necrosis)
same,Sum of % necrosis in Peas,"Dose 0.00005, Day 0",C (less than 50% necrosis)
same,Sum of % necrosis in Peas,"Dose 0.00005, Day 1",C (less than 50% necrosis)
same,Sum of % necrosis in Peas,"Dose 0.00005, Day 3",C (less than 50% necrosis)
same,Sum of % necrosis in Peas,"Dose 0.00005, Day 7",C (less than 50% necrosis)
same,Sum of % necrosis in Peas,"Dose 0.00005, Day 10",B (50%-80% necrosis)
same,Sum of % necrosis in Peas,"Dose 0.00005, Day 14",A (over 80% necrosis)
same,Sum of % necrosis in Peas,"Dose 0.00005, Day 21",A (over 80% necrosis)
same,Sum of % necrosis in Peas,"Dose 0.0001, Day 0",C (less than 50% necrosis)
same,Sum of % necrosis in Peas,"Dose 0.0001, Day 1",C (less than 50% necrosis)
same,Sum of % necrosis in Peas,"Dose 0.0001, Day 3",C (less than 50% necrosis)
same,Sum of % necrosis in Peas,"Dose 0.0001, Day 7",C (less than 50% necrosis)
same,Sum of % necrosis in Peas,"Dose 0.0001, Day 10",B (50%-80% necrosis)
same,Sum of % necrosis in Peas,"Dose 0.0001, Day 14",A (over 80% necrosis)
same,Sum of % necrosis in Peas,"Dose 0.0001, Day 21",A (over 80% necrosis)
same,Sum of % necrosis in Peas,"Dose 0.0005, Day 0",C (less than 50% necrosis)
same,Sum of % necrosis in Peas,"Dose 0.0005, Day 1",C (less than 50% necrosis)
same,Sum of % necrosis in Peas,"Dose 0.0005, Day 3",C (less than 50% necrosis)
same,Sum of % necrosis in Peas,"Dose 0.0005, Day 7",C (less than 50% necrosis)
same,Sum of % necrosis in Peas,"Dose 0.0005, Day 10",C (less than 50% necrosis)
same,Sum of % necrosis in Peas,"Dose 0.0005, Day 14",C (less than 50% necrosis)
same,Sum of % necrosis in Peas,"Dose 0.0005, Day 21",A (over 80% necrosis)
